Results from patent US20240415819A1, “MACROCYCLIC COMPOUNDS AS PROTEASOME SUBUNIT BETA TYPE-5 INHIBITORS” (Lead Discovery Center GmbH, priority 2021, published 2024).

Assays:
[1] = system: Hs 746T (human gastric carcinoma cell line); assay: 48 hr CTG viability assay, Hs 746T; assay type: cell-based; conditions: Hs746T, 48 hr CTG, read-out: Hs 746T IC50
In short: (§1)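 Growth inhibition by compound over 48 h; IC50 (nM) derived from duplicate CellTiter-Glo luminescence readings across 0.0015–10 uM.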

[2] = system: MM1 S (B lymphoblast cell line); assay: 48 hr CTG viability assay, MM1S; assay type: cell-based; conditions: Homo sapiens, 48 hr CTG, read-out: MM1S IC50
In short: as §1

[3] = system: A549 (human lung carcinoma cell line); assay: Glo assay of A549 cells (Table 3; ProteasomeGlo plating scheme); assay type: cell-based; conditions: Homo sapiens; A549 cells; read-out: PGLo A549
In short: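 Compound treatment lasts 105 minutes at 37° C. under 5% CO2. Suc-LLVY-Glo substrate premixed with detection reagent (60 min at room temperature) is then added directly to the cells, and luminescence after 10-15 min in the dark gives the IC50 in nM.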

[4] = target: T1, β5 subunit of the human immunoproteasome (IPS) (Homo sapiens, UniProt P28062); assay: β5 inhibition assay, human immunoproteasome (Suc-LLVY-AMC); assay type: biochemical; conditions: IC50 class, Suc-LLVY-AMC substrate
T1 construct: purchased Boston Biochem E-370
In short: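 Human immunoproteasome (1 nM final) was preincubated 10 min at RT with compound in 100 mM HEPES pH 7.5, 50 mM NaCl, 0.02% SDS, 1 mM DTT. Suc-LLVY-AMC (22.6 μM final) was then added for 4 h at RT in the dark. After stopping with 1 μM bortezomib, AMC fluorescence was read (ex 355/em 460 nm).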

[5] = system: RPMI 8226 (B lymphocyte cell line, multiple myeloma); assay: 48 hr CTG viability assay, RPMI 8226; assay type: cell-based; conditions: Homo sapiens, RPMI-8226; 48 hr CTG; read-out: RPMI-8226 IC50
In short: as §1

[6] = target: T2, β5 subunit of the human constitutive proteasome (CPS) (Homo sapiens, UniProt P28074); assay: β5 inhibition assay, human constitutive proteasome (Suc-LLVY-AMC); assay type: biochemical; conditions: IC50 class, Suc-LLVY-AMC substrate
T2 construct: purchased Boston Biochem E-360
Description: The enzymatic activity of the β5 subunit of the human constitutive proteasome (CPS) is analyzed. In another assay, which differs from the assay of the human constitutive proteasome only in using the human immunoproteasome (IPS) the enzymatic activity of the β5 subunit of the human immunoproteasome (IPS) is analyzed. […] Inhibition is indicated as IC50 [nM] (“-”=not measured).

Measured: IC50

Cc1ccc2cc1CNC(=O)[C@H](CCc1cccnc1)NC(=O)[C@@H](NC(=O)Cc1ccc(N)cc1C)CC(=O)N1CCCC(CCO2)C1 (stereo partly drawn) [Compound 645, 2-(4-amino-2-methylphenyl)-N-((9S,12S)-5^4-methyl-8,11,14-trioxo-9-(2-(pyridin-3-yl)ethyl)-4-oxa-7,10-diaza-1(3,1)-piperidina-5(1,3)-benzenacyclotetradecaphane-12-yl)acetamide]
< 100 nM: all assays above

Cc1ccc2cc1CNC(=O)[C@H](CCc1ccccc1)NC(=O)[C@@H](NC(=O)C(C)(C)C(F)(F)F)CC(=O)N1CCCC(CCO2)C1 (stereo partly drawn) [Compound 646, 3,3,3-trifluoro-2,2-dimethyl-N-((9S,12S)-5^4-methyl-8,11,14-trioxo-9-phenethyl-4-oxa-7,10-diaza-1(3,1)-piperidina-5(1,3)-benzenacyclotetradecaphane-12-yl)propanamide]
< 100 nM: all assays above

Cc1ccc2cc1CNC(=O)[C@H](CCc1ccccc1)NC(=O)[C@@H](NC(=O)CCNCc1ccccc1)CC(=O)N1CCCC(CCO2)C1 (stereo partly drawn) [Compound 647, 3-(benzylamino)-N-((9S,12S)-5^4-methyl-8,11,14-trioxo-9-phenethyl-4-oxa-7,10-diaza-1(3,1)-piperidina-5(1,3)-benzenacyclotetradecaphane-12-yl)propanamide]
< 100 nM: all assays above

Cc1ccc2cc1CNC(=O)[C@H](CCc1ccccc1)NC(=O)[C@@H](NC(=O)CCN1CCC3(COC3)C1)CC(=O)N1CCCC(CCO2)C1 (stereo partly drawn) [Compound 648, N-((9S,12S)-5^4-methyl-8,11,14-trioxo-9-phenethyl-4-oxa-7,10-diaza-1(3,1)-piperidina-5(1,3)-benzenacyclotetradecaphane-12-yl)-3-(2-oxa-6-azaspiro[3.4]octan-6-yl)propanamide]
< 100 nM: all assays above

Cc1ccc2cc1CNC(=O)[C@H](CCc1ccccc1)NC(=O)[C@@H](NC(=O)CCNC1CC1)CC(=O)N1CCCC(CCO2)C1 (stereo partly drawn) [Compound 649, 3-(cyclopropylamino)-N-((9S,12S)-5^4-methyl-8,11,14-trioxo-9-phenethyl-4-oxa-7,10-diaza-1(3,1)-piperidina-5(1,3)-benzenacyclotetradecaphane-12-yl)propanamide]
< 100 nM: all assays above

Cc1ccc2cc1CNC(=O)[C@H](CCc1ccccc1)NC(=O)[C@@H](NC(=O)CCNC(=O)c1cccc(OCC(C)C)c1)CC(=O)N1CCCC(CCO2)C1 (stereo partly drawn) [Compound 651, 3-isobutoxy-N-(3-(((9S,12S)-5^4-methyl-8,11,14-trioxo-9-phenethyl-4-oxa-7,10-diaza-1(3,1)-piperidina-5(1,3)-benzenacyclotetradecaphane-12-yl)amino)-3-oxopropyl)benzamide]
< 100 nM: all assays above

Cc1ccc2cc1CNC(=O)[C@H](CCc1ccccc1)NC(=O)[C@@H](NC(=O)CCN1CCC3(CCCC3)C1)CC(=O)N1CCCC(CCO2)C1 (stereo partly drawn) [Compound 652, N-((9S,12S)-5^4-methyl-8,11,14-trioxo-9-phenethyl-4-oxa-7,10-diaza-1(3,1)-piperidina-5(1,3)-benzenacyclotetradecaphane-12-yl)-3-(2-azaspiro[4.4]nonan-2-yl)propanamide]
< 100 nM: all assays above
